Laboratory results: patent publication US20040242568A1, “Dipeptidyl peptidase inhibitors” (Syrrx, Inc., priority 2003, published 2004)

Assay: Microsomal stability in rat liver microsomes
Details: Rat liver microsomes 1 mg/mL protein, 1 μM compound, 37° C., NADPH 4 mM
Method: Several compounds were evaluated for stability in rat liver microsomes.
The test compounds (1 μM) were incubated at 37° C. in phosphate buffer (50 mM, pH 7.4) containing rat liver microsomes (1 mg/mL protein) and NADPH (Nicotinamide Adenine Dinucleotide Phosphate, reduced form) (4 mM). The incubation mixtures were quenched with trichloroacetic acid (0.3 M) over 0, 5, 15, 30 min time-course. Quenched solutions were centrifuged and supernatants were transferred for LC/MS quantitation. The half life of a test compounds was derived from the compound stability curve over the time course.

T1/2 | SMILES
2.5 min | N#Cc1ccccc1Cn1c(N2CCCC(N)C2)nc2ccccc2c1=O (stereo not drawn) [Example 1, 2-[2-(3-Amino-piperidin-1-yl)-4-oxo-4H-quinazolin-3-ylmethyl]-benzonitrile]
106.6 min | COc1cc2nc(N3CCCC(N)C3)n(Cc3ccccc3C#N)c(=O)c2cc1OC (stereo not drawn) [Example 2, 2-[2-(3-Amino-piperidin-1-yl)-6,7-dimethoxy-4-oxo-4H-quinazolin-3-ylmethyl]-benzonitrile]
31 min | N#Cc1ccccc1Cn1c(N2CCCC(N)C2)nc2ccc(F)cc2c1=O (stereo not drawn) [Example 6, 2-[2-(3-Amino-piperidin-1-yl)-6-fluoro-4-oxo-4H-quinazolin-3-ylmethyl]-benzonitrile]
